In patent US11185554B2 (priority 2016, dated 2021):

Assays:
[1] = tested on: free radicals (ROS/RNS); design: species or system C57BL/6J mice; details: mouse, in vivo
[2] = tested on: cytokines, chemokines in the peripheral blood; design: species or system C57BL/6J mice; details: mouse, in vivo
[3] = tested on: EBOV; design: species or system C57BL/6J mice; details: mouse, in vivo
[4] = tested on: ebola virus; design: species or system C57BL/6J mice; details: mouse, in vivo
[5] = tested on: influenza; details: mouse, in vivo; cited from earlier work
[6] = tested on: neutrophils and T cells in the peripheral blood; design: species or system C57BL/6J mice; details: mouse, in vivo

SMILES: CCCCCC/C=C\CCCCCCCCCC(=O)N[C@H]1[C@H](OC[C@H]2O[C@H](OP(=O)(O)O)[C@H](NC(=O)CC(=O)CCCCCCCCCCC)[C@@H](OCCCCCCCCCC)[C@@H]2O)O[C@H](COC)[C@@H](OP(=O)(O)O)[C@@H]1OCC[C@@H](CCCCCCC)OC [eritoran, α-D-Glucopyranose, 3-O-decyl-2-deoxy-6-O-[2-deoxy-3-O-[(3R)-3-methoxydecyl)-6-O-methyl-2-[[(-11Z)-1-oxo-11-octadecenyl)amino]-4-O-phosphono-3-D-glucopyranosyl]-2-[(1,3-dioxotetradecyl)amino]-1-(dihydrogen phosphate)]
- reduction of free radicals (ROS/RNS) [1]: 23%
- decrease of serum levels of leukemia inhibitory factor (LIF) [2]: 10.3 fold
- increase in the production of KC [2]: 10.0 fold
- increase of levels of G-CSF [2]: 7.0 fold
- increase of levels of M-CSF [2]: 58%
- reduction of serum IL-7 levels [2]: 41%
- serum IL-6 level [2]: reduced
- serum IL-9 level [2]: reduced
- serum IL-10 level [2]: reduced
- serum IL-13 level [2]: reduced
- serum MIG level [2]: significantly decreased
- serum MIP-1α level [2]: significantly decreased
- serum MIP-1β level [2]: significantly decreased
- serum MIP-2 level [2]: significantly decreased
- serum RANTES level [2]: significantly decreased
- serum TNFα level [2]: reduced
- serum IP-10 level ([2]; ip): significantly decreased
- reduction of viremia versus placebo [3]: two-logs
- viremia (quantitative RT-PCR) [3]: 10^5 genome equivalents per mL
- protection against ebola virus challenge [4]: does not protect
- protection from lethal influenza challenge [5]: protected
- B-cells, NK-cells and monocytes populations [6]: no effect
- absolute count of CD3+, CD3+CD4+ and CD3+CD8+ T cells [6]: further reduced
- expansion of the neutrophil population (absolute counts) [6]: blocked expansion
- granulocytes, absolute count [6]: 2,786 cells/μl
- increase of percentages of CD4+ T cells positive for IL-4 [6]: 3.8 fold
- increase of percentages of CD4 T cells positive for CD69 [6]: 2.8 fold
- levels of IFNγ-secreting CD4+ T cells [6]: dramatically reduced
- levels of IFNγ-secreting CD8+ T cells [6]: dramatically reduced
- levels of IL-17A-secreting CD4+ T cells [6]: dramatically reduced
- percentages of CD11b+Ly6G/Ly6C+ neutrophils in gated granulocytes, placebo versus eritoran [6]: no difference
- percentages of neutrophils expressing activation marker CD64 [6]: significantly increased
- percentages of neutrophils expressing activation marker CD69 [6]: significantly increased
- ratio of CD11b+Ly6G/Ly6C+ neutrophils to CD3+ T-lymphocytes [6]: 11.05
- ratio of CD11b+Ly6G/Ly6C+ neutrophils to total lymphocytes [6]: 2.15
